From US20250042926A1, “THERAPEUTIC COMPOUNDS FOR HIV” (priority 2023, published 2025)

Format: physicochemical
Details: kinetic solubility from DMSO stock, 1.0% DMSO, 24-hour incubation at ambient temperature, filtrate quantified by CLND
Description: 2. Kinetic Solubility Analysis (CLND: Total Chemiluminescent Nitrogen Determination)
The final DMSO Concentration is 1.0% and maximum theoretical compound concentration is […] (assuming stock concentration of 10 mM). The filter plate is sealed. Following 24-hour incubation at ambient temperature (21.7-23.8° C.), the samples are vacuum filtered, and the filtrates are collected in a 96 well polypropylene plate for analysis. The collection plate is sealed for analysis.
Filtrates are injected into the nitrogen detector for quantification on Analiza's Automated Discovery Workstation. The equimolar nitrogen response of the detector is calibrated using standards which span the dynamic range of the instrument from 0.08 to 4500 μg/ml nitrogen. The filtrates are quantified with respect to this calibration curve. The calculated solubility values are corrected for background nitrogen present in the DMSO, and the media used to prepare the samples. The 1×PBS buffer (pH 7.4) is prepared by adding 50 mL of phosphate buffered saline solution 10×, PBS (Fisher Bioreagent part number BP399-500) to approximately 450 mL HPLC grade H2O. The volume of the solution is then adjusted to 500 mL for a total dilution factor of 1:10 and a final PBS concentration of 1X.

**Q.** What does the source list for `Cc1cc(CC(=O)N[C@@H](CC(=O)O)C(=O)O)c(C(C)(C)CC(=O)N(c2nn(C)c3c(-n4c([C@H](Cc5cc(F)cc(F)c5)NC(=O)Cn5nc(C(F)F)c6c5C(F)(F)[C@@H]5C[C@H]65)nc5cc(-c6cccc(C(F)(F)F)n6)ccc5c4=O)ccc(Cl)c23)S(C)(=O)=O)c(OP(=O)(O)O)c1` [Compound 5, (2-(2-(4-(N-(4-Chloro-7-(2-((S)-1-(2-((3bS,4aR)-3-(difluoromethyl)-5,5-difluoro-3b,4,4a,5-tetrahydro-1H-cyclopropa[3,4]cyclopenta[1,2-c]pyrazol-1-yl)acetamido)-2-(3,5-difluorophenyl)ethyl)-4-oxo-7-(6-(trifluoromethyl)pyridin-2-yl)quinazolin-3(411)-yl)-1-methyl-1H-indazol-3-yl)methylsulfonamido)-2-methyl-4-oxobutan-2-yl)-5-methyl-3-(phosphonooxy)phenyl)acetyl)-L-aspartic acid]?
**A.** pH 2 Solubility (μM) (pH 2 (medium 0.1N HCl)): 1.1 μM; pH 7 Solubility (μM) (pH 7 (medium 1×PBS buffer pH 7.4)): 76 μM
